From PubChem BioAssay (NCI)
Where “and” joins values, the source holds several entries; their conditions need not be identical. Equal values may be shown once.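 Tested at 5 concentrations; 48 h exposure; 96-well plates; endpoints linearly interpolated, else capped at highest concentration. The concentration for 50% growth inhibition is given as GI50. TGI is the concentration that stops growth completely.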

Key:
Assay in all cases: growth of human tumour cells (NCI), 48 h
[1] = tested on: SF-268 CNS
[2] = tested on: UACC-62 melanoma
[3] = tested on: CAKI-1 renal
[4] = tested on: SF-539 CNS
[5] = tested on: LOX IMVI melanoma
[6] = tested on: MOLT-4 leukemia
[7] = tested on: OVCAR-8 ovarian
[8] = tested on: SK-MEL-2 melanoma
[9] = tested on: EKVX NSCLC
[10] = tested on: DU-145 prostate
[11] = tested on: MDA-MB-231 breast
[12] = tested on: BT-549 breast

| SMILES | TGI [1] | TGI [2] | TGI [3] | TGI [4] | TGI [5] | TGI [6] | TGI [7] | TGI [8] | TGI [9] | TGI [10] | TGI [11] | TGI [12] | GI50 [7] | GI50 [8] | GI50 [9] |
| --- | --- | --- | --- | --- | --- | --- | --- | --- | --- | --- | --- | --- | --- | --- | --- |
| COC1=C(OC)C(=O)c2cc(SC)c(=O)c(SC)cc2C1=O | 28.3 µM | 4.45 µM | > 100 µM | 24.8 µM | 16.6 µM | 17.4 µM | 50.9 µM | 15.5 µM | 48.9 µM |  |  |  |  |  |  |
| COC(=O)CC[N+]1([O-])CC1 | > 100 µM | > 100 µM |  | > 100 µM | > 100 µM | > 100 µM | > 100 µM |  | > 100 µM | > 100 µM | > 100 µM |  |  |  |  |
| COc1cc2c(cc1C)NC(=O)/C2=C\c1cccnc1 | 50 µM |  | 36.2 µM | 51.7 µM | > 100 µM | 60.1 µM | 72.6 µM | 76.1 µM | 52.9 µM | 54.3 µM |  | 96.9 µM |  |  |  |
| COc1cccc2c1C(=O)c1c(O)c3c(c(O)c1C2=O)CC(O)(C(C)=O)CC3OC1CC([N+](C)(C)C)C(O)C(C)O1 (configuration not stated) | > 100 µM | > 100 µM | > 100 µM | > 100 µM | > 100 µM | 56.1 µM | > 100 µM | > 100 µM | > 100 µM |  |  |  |  |  |  |
| CCCCC1=C(C(=O)N2CCOCC2)C2(OCCO2)C1Cl (configuration not stated) | > 100 µM | > 100 µM | 86.5 µM | 37.8 µM | > 100 µM | > 100 µM | > 100 µM | 51.6 µM | > 100 µM | > 100 µM | > 100 µM |  |  |  |  |
| COC(=O)CC(SCCO)SCCO | > 100 µM | > 100 µM | > 100 µM | > 100 µM | > 100 µM | > 100 µM | > 100 µM |  | > 100 µM | > 100 µM | > 100 µM |  |  |  |  |
| CC[C@@]1(O)C(=O)OCc2c1cc1n(c2=O)Cc2c-1nc1ccccc1c2C=Nc1ccc(N[C@@H]2c3cc4c(cc3[C@@H](c3cc(OC)c(O)c(OC)c3)[C@H]3C(=O)OC[C@@H]32)OCO4)cc1 | > 100 µM |  |  | 0.132 µM |  | > 100 µM | 0.263 µM |  | 19.9 µM and 10.9 µM | 0.18 µM and 0.028 µM | 18.4 µM and 4.06 µM |  | 0.0264 µM and 0.016 µM | 2.5 µM and 0.535 µM | 2.51 µM and 0.665 µM |
| C[C@@H]1C(=O)O[C@@H]2C[C@@]1(C)[C@@H]1C(=O)C3(O)OC14C2(C)OC(=O)[C@@]4(O)CCC1C3C(O)C=C2CC=CC(=O)[C@@]21C (some centres not stated) | > 100 µM | > 100 µM | > 100 µM | 53.5 µM |  | 57.1 µM | > 100 µM | 62.9 µM | > 100 µM | > 100 µM | > 100 µM |  |  |  |  |
| N#CCN(Cc1ccccc1)[C@H]1CCC[C@]1(O)/C=C/c1ccc2c(c1)OCO2 | > 100 µM | 37.9 µM | > 100 µM | 88.8 µM | 29.4 µM | 48.1 µM | 32.5 µM | 42.8 µM | > 100 µM | > 100 µM | 71.5 µM |  |  |  |  |
| CC1=CC(=C(c2ccc(N)c(C)c2)c2ccc(N)c(C)c2)C=CC1=N | 17.8 µM | 10.2 µM | 62.4 µM | 14.5 µM | 15.3 µM | 30.9 µM | 18.3 µM | 7.48 µM | 45.8 µM |  |  |  |  |  |  |
| N#Cc1cccc(Nc2ccccc2SSc2ccccc2Nc2cccc(C#N)c2)c1 | > 21.5 µM | > 21.5 µM |  | 17.4 µM | 8.88 µM | 21.4 µM | > 21.5 µM |  | > 21.5 µM | > 21.5 µM | > 21.5 µM |  |  |  |  |
| CC[N+](C)(C)c1ccc(C(=C2C=CC(=[N+](C)C)C=C2)c2ccc(N(C)C)cc2)cc1 | 32.4 µM | 29.7 µM | > 100 µM | 50.4 µM | 24.2 µM | 46.1 µM | 64.9 µM | 56.8 µM | > 100 µM |  |  |  |  |  |  |
| CC12CC(=O)OC(Cc3ccccc31)O2 (configuration not stated) | > 100 µM | > 100 µM |  | > 100 µM | > 100 µM | > 100 µM | > 100 µM | > 100 µM | > 100 µM |  |  |  |  |  |  |
| COC1/C=C/C(C)C(C(C)C(OC)C(C)CCC(=O)C(C)C(CC(=O)O)OC)OC(=O)/C=C/C=C(\C)CC(OC)C(OC)C2=CC(=O)O[C@@H](C(C)C(OC)CC(OC)/C=C/C(C)C(O)C1)[C@H]2O (some centres not stated) | 0.157 µM | > 1.07 µM | > 1.07 µM |  | > 1.07 µM | > 1.07 µM | 0.132 µM | 0.625 µM | 0.175 µM | > 1.07 µM | 0.754 µM |  |  |  |  |
| CC1=NN(c2cccc(Cl)c2)C(=N/c2nc3ccccc3s2)/C1=C\c1ccccc1O | 78.8 µM |  | > 100 µM | > 100 µM | 57.6 µM | 87.4 µM | > 100 µM | 40.3 µM | > 100 µM | > 100 µM | 64.4 µM |  |  |  |  |
| O=c1ccc(-c2ccc(-n3ccnc3)cc2)nn1CCO | > 100 µM | > 100 µM | > 100 µM | > 100 µM |  | > 100 µM | > 100 µM |  | > 100 µM | > 100 µM |  | > 100 µM |  |  |  |
| CCOC(=O)/C(=C\NC[C@@H](C)O)c1nc2ccccc2[nH]1 | > 100 µM | > 100 µM | > 100 µM | > 100 µM | > 100 µM |  | > 100 µM |  | > 100 µM | > 100 µM |  | > 100 µM |  |  |  |
